Assay results from patent publication US8293464B2, “Methods for reducing the internalization of viruses and identification of compounds effective thereof” (Universiteit Gent, priority 2008, dated 2012).
Residues, ends and D or L forms follow the SMILES beside them.

Experiments:
[1] = system: surface expressed viral antigens in FIPV infected monocytes; experiment: Internalization inhibition assay of surface expressed viral antigens (antigen-antibody complexes); assay type: cell-based, feline; details: each inhibitor at its working concentration
[2] = system: feline monocytes; experiment: Internalization assay of control ligands (beads, transferrin or albumin) in monocytes; assay type: cell-based; details: for internalization of a control ligand: control ligand not named
Protocol: To test the effectiveness of all reagents, a suitable control was used in each experiment. Monocytes seeded on glass coverslips were pre-incubated for 30 minutes at 37° C. with 5% CO2 in the presence of one of the inhibitors. After treatment, the cells were incubated with biotinylated transferrin (Sigma-Aldrich GmbH) or fluorescent 1 μm polystyrene microspheres, FluoSpheres (Molecular Probes-Invitrogen), in presence of the inhibitor. Then, cells were fixed with 1% formaldehyde and permeabilized with 0.1% Triton X-100. The biotinylated transferrin was visualized by incubating the cells with streptavidin-FITC for 1 hour at 37° C. and cells incubated with fluorescent beads were incubated with phalloidin-Texas Red (Molecular Probes-Invitrogen) for 1 hour at 37° C. to visualize the lamellipodia. The glass coverslips were mounted on microscope slides using glycerin-DABCO and analyzed by confocal microscopy. […] Fluorescent beads were considered internalized when they were found inside the cortical actin labeling.

[3] = system: feline monocytes; experiment: as above; assay type: cell-based; details: 50 μg/ml genistein
[4] = inhibitor at working concentration

SMILES | internalization of viral antigens (in words) [1] | internalization of a control ligand [2, 4] [%] | also measured
COC(=O)[C@@]1(O)C[C@H]2O[C@]1(C)n1c3ccccc3c3c4c(c5c6ccccc6n2c5c31)C(=O)NC4 [K252a, K-252a] | inhibited | – | internalization of the control ligand (beads), in words ([2]; 150 nM K-252a): inhibited
CC(NC(=O)C(CCCN=C(N)N)NC(=O)C(CCCCN)NC(=O)C(N)CCCN=C(N)N)C(=O)NC(CCCN=C(N)N)C(=O)NC(CCCCN)C(=O)NC(CCC(=O)O)C(=O)O (stereo not shown) [PKG-inhibitor] (H-RKRARKE-OH; configuration not given here) | unaffected | 14±7 | –
O=c1c(-c2ccc(O)cc2)coc2cc(O)cc(O)c12 [genistein] | – | – | internalization of viral antigens ([1]; 30 min pre-incubation, 30 min with antibodies): 81±4 % of untreated control; internalization of the control ligand albumin [3]: 3±5 % of the untreated control
[F-].[Na+] [sodium fluoride] | no reduction | – | internalization of the control ligand transferrin [2, 4]: 46±6 % of the untreated control
CN(C)CCCn1cc(C2=C(c3c[nH]c4ccccc34)C(=O)NC2=O)c2ccccc21 [bisindolylmaleimide I] | unaffected | 25±13 | –
